We go through 18 molecules from paper PMC9289884 (Journal of Medicinal Chemistry, 2022).

pIC50, pKi: −log10 of the molar value.

One data set concerns the target TbDHFR (Trypanosoma brucei brucei, UniProt Q27783). Briefly: biochemical.
The target in a further data set is LmDHFR (Leishmania major, UniProt P07382). Briefly: biochemical.
In data set [1] the target is Leishmania major PTR1 (LmPTR1). The conditions noted are these: read-out: Ki LmPTR1; cited from earlier work.
The target of the next data set is L. major DHFR (LmDHFR). Conditions: read-out: Ki LmDHFR; cited from earlier work.
Another data set deals with human DHFR (hDHFR). Conditions: read-out: Ki hDHFR; cited from earlier work.
Data set [2] concerns T. brucei brucei Lister 427 bloodstream forms. Put plainly: Efficacy against T. brucei bloodstream forms, resazurin-based assay. In kind it is cell-based, Trypanosoma brucei brucei. Conditions: 72 h; for inhibition at 10 µM: Trypanosoma brucei, read-out: % inhibition T. brucei at 10 µM ± SD; for % inhibition T. brucei at 10 µM ± SD: 10 µM compound, T. brucei brucei Lister 427 bloodstream form. Background: The colour change of resazurin is a common sign of viable cells or microbes.

The next data set has as its target T1, hDHFR (Homo sapiens, UniProt P00374).
T1 sequence (P00374 1-187): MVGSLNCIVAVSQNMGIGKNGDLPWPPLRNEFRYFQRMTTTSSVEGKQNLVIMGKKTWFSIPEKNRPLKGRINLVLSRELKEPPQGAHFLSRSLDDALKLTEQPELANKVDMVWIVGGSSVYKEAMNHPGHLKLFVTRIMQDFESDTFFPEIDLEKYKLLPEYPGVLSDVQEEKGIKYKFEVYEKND
Put plainly: biochemical. Conditions: for hDHFR IC50: off-target.

In a further data set the target is T2, LmPTR1 (Leishmania major, UniProt Q01782).
T2 sequence (Q01782 1-288): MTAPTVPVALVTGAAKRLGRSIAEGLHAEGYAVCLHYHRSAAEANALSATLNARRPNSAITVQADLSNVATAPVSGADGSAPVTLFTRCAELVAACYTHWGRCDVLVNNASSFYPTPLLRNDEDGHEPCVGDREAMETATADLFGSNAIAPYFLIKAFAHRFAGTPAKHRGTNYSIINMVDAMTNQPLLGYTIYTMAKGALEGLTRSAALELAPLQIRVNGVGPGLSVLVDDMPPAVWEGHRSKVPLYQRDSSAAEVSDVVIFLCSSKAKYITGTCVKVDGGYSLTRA
Put plainly: biochemical.

The target of another data set is hTS (Homo sapiens, UniProt P04818). Put plainly: biochemical.
Chain of hTS (P04818 whole entry): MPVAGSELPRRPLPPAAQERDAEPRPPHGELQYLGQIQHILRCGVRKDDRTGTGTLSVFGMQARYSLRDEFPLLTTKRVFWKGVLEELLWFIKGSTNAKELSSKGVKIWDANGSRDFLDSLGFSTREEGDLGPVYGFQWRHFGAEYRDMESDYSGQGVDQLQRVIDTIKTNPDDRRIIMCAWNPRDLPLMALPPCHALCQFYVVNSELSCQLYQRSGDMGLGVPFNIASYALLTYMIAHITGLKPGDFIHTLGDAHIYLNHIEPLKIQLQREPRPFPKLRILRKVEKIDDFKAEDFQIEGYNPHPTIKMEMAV
Data set [3] in a line: Cytotoxicity on THP-1-derived macrophages, colorimetric MTT assay. In kind it is cell-based. Conditions: human.

Chain of LmDHFR (P07382 whole entry): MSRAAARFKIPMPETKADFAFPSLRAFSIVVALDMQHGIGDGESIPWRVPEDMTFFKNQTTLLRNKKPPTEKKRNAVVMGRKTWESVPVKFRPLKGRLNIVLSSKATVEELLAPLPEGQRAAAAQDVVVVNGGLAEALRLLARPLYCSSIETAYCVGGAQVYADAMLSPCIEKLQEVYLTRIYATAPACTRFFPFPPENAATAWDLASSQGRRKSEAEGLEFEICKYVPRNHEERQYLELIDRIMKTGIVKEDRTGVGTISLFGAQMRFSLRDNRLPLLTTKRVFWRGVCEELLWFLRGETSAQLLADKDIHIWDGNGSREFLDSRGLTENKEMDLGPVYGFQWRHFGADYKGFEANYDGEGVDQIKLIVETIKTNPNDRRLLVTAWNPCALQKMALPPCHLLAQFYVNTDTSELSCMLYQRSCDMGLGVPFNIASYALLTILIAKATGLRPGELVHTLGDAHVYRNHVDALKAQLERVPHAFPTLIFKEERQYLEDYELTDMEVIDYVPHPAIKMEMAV
Chain of TbDHFR (Q27783 whole entry): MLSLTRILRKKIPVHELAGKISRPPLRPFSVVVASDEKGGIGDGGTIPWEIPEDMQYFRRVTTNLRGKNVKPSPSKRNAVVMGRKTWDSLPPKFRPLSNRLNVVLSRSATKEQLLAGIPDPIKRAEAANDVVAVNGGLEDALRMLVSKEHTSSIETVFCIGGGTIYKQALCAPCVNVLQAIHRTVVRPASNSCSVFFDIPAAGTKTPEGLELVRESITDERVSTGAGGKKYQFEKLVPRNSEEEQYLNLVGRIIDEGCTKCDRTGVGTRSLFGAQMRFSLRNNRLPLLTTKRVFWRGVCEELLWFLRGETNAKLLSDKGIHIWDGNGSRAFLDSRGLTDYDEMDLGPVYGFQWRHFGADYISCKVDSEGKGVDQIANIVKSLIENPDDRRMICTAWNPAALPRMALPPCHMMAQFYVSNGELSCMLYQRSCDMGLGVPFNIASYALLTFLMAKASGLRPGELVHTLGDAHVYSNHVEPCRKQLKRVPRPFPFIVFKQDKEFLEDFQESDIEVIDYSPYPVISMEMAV

The pIC50 is −log10 of the IC50, conventionally taken in molar units. The pKi is the negative decadic logarithm of the Ki, by convention in mol/L. Regarding `COC(=O)C1CCN(C(=O)c2ccc(N(C)Cc3cnc4nc(N)nc(N)c4n3)cc2)CC1` [Compound 1b, methyl-1-(4-(((2,4-diaminopteridin-6-yl)methyl)(methyl)amino)benzoyl)piperidine-4-carboxylate, reference compound], the negative-log IC50 (pIC50) against TbDHFR and against LmDHFR was 6.52 each time. In [1], the pKi is 7.40. On to `COC(=O)C1CCN(C(=O)c2ccc(NCc3cnc4nc(N)nc(N)c4n3)cc2)CC1` [Compound 1c, methyl-1-(4-(((2,4-diaminopteridin-6-yl)methyl)amino)benzoyl)piperidine-4-carboxylate], for which the pKi in [1] was 7.00; on L. major DHFR (LmDHFR), 5.40; at human DHFR (hDHFR), 5.00. By inhibition is commonly meant the relative decrease from the control value, in per cent. As for `COC(=O)C1CCN(C(=O)c2ccc(N(Cc3ccccc3)Cc3cnc4nc(N)nc(N)c4n3)cc2)CC1` [Compound 2c], the pIC50 at TbDHFR is roughly 6.00. Besides, the inhibition at 10 µM in [2] was determined as 75%. On to `Nc1nc(N)c2nc(CNc3cccc4ccccc34)cnc2n1` [Compound 3c], for which the negative-log IC50 (pIC50) against TbDHFR was 6.30; at hDHFR, 5.40. As to `Nc1nc(N)c2nc(C(=O)NCc3ccccc3)cnc2n1` [Compound 3d], the “TbDHFR IC50” value at TbDHFR is given as “do not show inhibitory activity”. Besides, the “LmDHFR IC50” value at LmDHFR is recorded as “do not show inhibitory activity”. As to `Nc1nc(N)c2nc(C(=O)NCc3cccc(C(F)(F)F)c3)cnc2n1` [Compound 3e], the “TbDHFR IC50” value on TbDHFR is given as “do not show inhibitory activity”. The “LmDHFR IC50” value at LmDHFR is “do not show inhibitory activity”. For the molecule `CCOC(=O)C1CCN(C(=O)c2ccc(N(C)Cc3cnc4nc(N)nc(N)c4n3)cc2)CC1` [Compound 4a], on LmDHFR, the pIC50 is 7.00.

Molecule `CN(Cc1cnc2nc(N)nc(N)c2n1)c1ccc(C(=O)N2CCCCC2)cc1` [Compound 4c] showed a negative logarithm of the IC50 (pIC50) against LmPTR1 of 7.00. As to `Nc1nc(N)c2nc(CNc3ccc(C(=O)NCCc4ccccc4)cc3)cnc2n1` [Compound 4e], in data set [2], the inhibition at 10 µM was found to be 40%. With `COc1ccc(CNC(=O)c2ccc(CNCc3cnc4nc(N)nc(N)c4n3)cc2)cc1` [Compound 4f], the “% inhibition T. brucei at 10 µM ± SD” value in [2] is “inactive”.

In the case of `Nc1nc(N)c2nc(CNCc3ccc(Oc4ccccc4)cc3)cnc2n1` [Compound 4h], the “% inhibition T. brucei at 10 µM ± SD” value in [2] is “inactive”. Turning to `COc1ccc(Oc2ccc(CNCc3cnc4nc(N)nc(N)c4n3)cc2)cc1` [Compound 4i], at TbDHFR, the “TbDHFR IC50” value was “inactive”. Also, at LmDHFR, the “LmDHFR IC50” value was “inactive”. In addition, the “hDHFR IC50” value on hDHFR is “inactive”.

Turning to `COc1cc(Oc2ccc(CNCc3cnc4nc(N)nc(N)c4n3)cc2)cc(OC)c1OC` [Compound 4j], the “% inhibition T. brucei at 10 µM ± SD” value in data set [2] was “inactive”.

Regarding `NC(=O)C1CCCN1C(=O)Cc1ccc(N(CCCO)Cc2cnc3nc(N)nc(N)c3n2)cc1` (centres unmarked) [Compound 5b], the “hDHFR IC50” value on hDHFR was “inactive”. This molecule also showed a pIC50 at hTS of 4.54. `CCOC(=O)C1CCN(C(=O)c2ccc(N(CC)Cc3cnc4nc(N)nc(N)c4n3)cc2)CC1` [Compound 5c] gave a pIC50 at LmDHFR of 6.70.

The CC50 is the concentration at which the toxic effect on the cells reaches its halfway point. Consider `CCN(Cc1cnc2nc(N)nc(N)c2n1)c1ccc(C(=O)c2ccccc2)cc1` [Compound 5d], for which the CC50 in data set [3] fell in the range of 25 to 50 µM. On the same count and under the same terms, the value for `COc1ccc(Oc2ccc(CN(Cc3ccccc3)Cc3cnc4nc(N)nc(N)c4n3)cc2)cc1` [Compound 5e] was 12.5 to 25 µM; that for `COc1ccc(Oc2ccc(CN(C)Cc3cnc4nc(N)nc(N)c4n3)cc2)cc1` [Compound 5f] was 12.5 to 25 µM.
